According to the supplement of paper PMC10307832:

Legend:
Test in all cases: relative viability (nuclei count vs DMSO), 5 days (fraction); higher = more cells survive
[1] = compound: CC1=C(C(=NN1)C)CC2=C(C3=C(S2)N(C(=O)N(C3=O)C)CC(C)C)C(=O)N4C[C@@H](CO4)O + Nc1nc2[nH]cc(CCc3ccc(C(=O)N[C@@H](CCC(=O)O)C(=O)O)cc3)c2c(=O)[nH]1 [Pemetrexed] (partner 0.2 µM)
In short: (§1)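 The day after seeding in 1536-well plates, lung cancer cell lines were treated by pin tool with a single drug, or with a fixed anchor-drug dose together with five library-drug doses (not always all listed) in √10 steps. After 5 days, a combined fix-and-stain solution (final 0.05% Triton X-100, 1% formaldehyde, 1 ug/ml Hoechst) was added. Nuclei counted on 4× images gave relative viability as treated counts over vehicle counts, reported as the median of duplicate plates.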

[2] = compound: Cc1ccccc1C(C(=O)NC1CCCCC1)N(C(=O)Cn1ccnc1C)c1cccc(F)c1 [IDH-C35] + N=C(N)NC(=N)NCCc1ccccc1 [Phenformin] (partner 250 µM)
In short: as §1

[3] = compound: CC1=C(C(=NN1)C)CC2=C(C3=C(S2)N(C(=O)N(C3=O)C)CC(C)C)C(=O)N4C[C@@H](CO4)O + Cc1cc(Nc2cc(N3CCN(C)CC3)nc(Sc3ccc(NC(=O)C4CC4)cc3)n2)n[nH]1 [Tozasertib] (partner 0.1 µM)
In short: as §1

[4] = compound: CC1=C(C(=NN1)C)CC2=C(C3=C(S2)N(C(=O)N(C3=O)C)CC(C)C)C(=O)N4C[C@@H](CO4)O + NC(=O)Nc1cc(-c2cccc(F)c2)sc1C(=O)N[C@H]1CCCNC1 [AZD7762] (partner 0.2 µM)
In short: as §1

Cell Line | relative viability ([1]; first compound 0.0025 µM) | relative viability ([1]; first compound 0.007906 µM) | relative viability ([1]; first compound 0.025 µM) | relative viability ([1]; first compound 0.07906 µM) | relative viability ([1]; first compound 0.25 µM) | relative viability ([2]; first compound 0.08 µM) | relative viability ([2]; first compound 0.253 µM) | relative viability ([2]; first compound 0.8 µM) | relative viability ([2]; first compound 2.53 µM) | relative viability ([2]; first compound 8 µM) | relative viability ([3]; first compound 0.0025 µM) | relative viability ([3]; first compound 0.007906 µM) | relative viability ([3]; first compound 0.025 µM) | relative viability ([3]; first compound 0.07906 µM) | relative viability ([3]; first compound 0.25 µM) | relative viability ([4]; first compound 0.0025 µM) | relative viability ([4]; first compound 0.007906 µM) | relative viability ([4]; first compound 0.025 µM) | relative viability ([4]; first compound 0.07906 µM) | relative viability ([4]; first compound 0.25 µM)
NCI-H1563 | 0.796 | 0.795 | 0.686 | 0.742 | 0.857 | 0.703 | 0.625 | 0.696 | 0.623 | 0.649 | – | – | – | – | – | – | – | – | – | –
NCI-H1623 | – | – | – | – | – | 0.604 | 0.638 | 0.573 | 0.613 | 0.557 | 0.463 | 0.494 | 0.467 | 0.398 | 0.49 | – | – | – | – | –
NCI-H1648 | 0.69 | 0.783 | 0.61 | 0.502 | 0.673 | – | – | – | – | – | 0.462 | 0.542 | 0.754 | 0.37 | 0.458 | 0.615 | 0.437 | 0.5 | 0.428 | 0.613
NCI-H1650 | 0.321 | 0.406 | 0.367 | 0.369 | 0.321 | 0.486 | 0.423 | 0.436 | 0.462 | 0.379 | 0.482 | 0.406 | 0.386 | 0.503 | 0.446 | – | – | – | – | –
NCI-H1703 | – | – | – | – | – | – | – | – | – | – | – | – | – | – | – | 0.113 | 0.144 | 0.112 | 0.113 | 0.136
NCI-H1792 | 0.932 | 0.6 | 0.768 | 0.644 | 0.719 | 0.257 | 0.258 | 0.244 | 0.483 | 0.334 | – | – | – | – | – | 0.607 | 0.727 | 0.512 | 0.564 | 0.578
NCI-H2009 | 1.09 | 1.03 | 0.955 | 1.03 | 1.06 | 0.56 | 0.498 | 0.521 | 0.451 | 0.481 | 0.751 | 0.695 | 0.779 | 0.829 | 0.745 | – | – | – | – | –
NCI-H2023 | 0.249 | 0.258 | 0.224 | 0.233 | 0.225 | 0.405 | 0.376 | 0.404 | 0.41 | 0.351 | 0.332 | 0.362 | 0.356 | 0.412 | 0.327 | – | – | – | – | –
NCI-H2228 | 0.317 | 0.342 | 0.339 | 0.322 | 0.324 | 0.255 | 0.374 | 0.436 | 0.417 | 0.405 | 0.239 | 0.248 | 0.265 | 0.26 | 0.279 | – | – | – | – | –
SK-LU-1 | 0.96 | 0.719 | 0.736 | 0.745 | 0.846 | 0.604 | 0.541 | 0.558 | 0.628 | 0.527 | 0.3 | 0.266 | 0.251 | 0.256 | 0.278 | – | – | – | – | –
SK-MES-1 | 1.08 | 0.988 | 0.857 | 0.967 | 0.988 | 0.696 | 0.649 | 0.6 | 0.673 | 0.648 | 0.904 | 0.983 | 0.872 | 1.05 | 0.908 | – | – | – | – | –
SW 1573 | 0.759 | 1.05 | 0.773 | 0.853 | 0.981 | 0.456 | 0.372 | 0.387 | 0.359 | 0.352 | 0.16 | 0.171 | 0.198 | 0.284 | 0.214 | – | – | – | – | –
